Where “and” joins values, the source holds several entries; their conditions need not be identical. Identical values can stand only once. Toxic doses and inconclusive results are not listed. Rule for the calls: active = survival T/C of 150% or more; inactive = T/C below 125% in these data.
Test system: P388 leukemia ip, CD2F1 mice, survival T/C
Test: NCI In Vivo Anticancer Drug Screen. Data for tumor model P388 Leukemia (intraperitoneal) in CD2F1 (CDF1) mice
Settings: endpoint: median survival time, higher = longer survival
Outline: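 Mice carrying the transplanted tumor received test compound or vehicle. Survival was recorded in each group, and the value is the treated-group measurement divided by that of the vehicle-treated control group.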

[1] = dose: 4.0 mg/kg/injection, schedule: Q01DX009 (ip), vehicle: saline with Tween-80
[2] = dose: 50.0 mg/kg/injection, schedule: Q01DX009 (ip), vehicle: saline
[3] = dose: 100.0 mg/kg/injection, schedule: Q01DX009 (ip), vehicle: saline
[4] = dose: 50.0 mg/kg/injection, schedule: Q01DX005 (ip), vehicle: saline with Tween-80
[5] = dose: 100.0 mg/kg/injection, schedule: Q01DX005 (ip), vehicle: saline with Tween-80
[6] = dose: 50.0 mg/kg/injection, schedule: Q01DX005 (ip), vehicle: Klucel (hydroxypropylcellulose) (HPC)
[7] = dose: 100.0 mg/kg/injection, schedule: Q01DX005 (ip), vehicle: Klucel (hydroxypropylcellulose) (HPC)
[8] = dose: 25.0 mg/kg/injection, schedule: Q01DX005 (ip), vehicle: saline with Tween-80
[9] = dose: 200.0 mg/kg/injection, schedule: Q01DX005 (ip), vehicle: saline with Tween-80

Measured: T/C

O=CC(CO)C(C=O)n1ncc2ccccc21 (stereo unspecified)
inactive: [1] 120 % of control | dose: 8.0 mg/kg/injection, schedule: Q01DX001 (ip), vehicle: suspension in saline 108 % of control | dose: 16.0 mg/kg/injection, schedule: Q01DX001 (ip), vehicle: saline 107 % of control | dose: 16.0 mg/kg/injection, schedule: Q01DX001 (ip), vehicle: suspension in saline 98 % of control | dose: 16.0 mg/kg/injection, schedule: Q01DX009 (ip), vehicle: saline with Tween-80 119 % of control | dose: 32.0 mg/kg/injection, schedule: Q01DX001 (ip), vehicle: saline 107 % of control and 116 % of control | dose: 32.0 mg/kg/injection, schedule: Q01DX001 (ip), vehicle: suspension in saline 94 % of control | dose: 64.0 mg/kg/injection, schedule: Q01DX001 (ip), vehicle: suspension in saline 108 % of control
active: dose: 64.0 mg/kg/injection, schedule: Q01DX001 (ip), vehicle: saline 172 % of control

c1ccc([I+]c2ccccc2)cc1
inactive: dose: 0.65 mg/kg/injection, schedule: Q01DX009 (ip), vehicle: saline 95 % of control | dose: 1.25 mg/kg/injection, schedule: Q01DX009 (ip), vehicle: saline sonified 100 % of control | dose: 1.3 mg/kg/injection, schedule: Q01DX009 (ip), vehicle: saline 90 % of control | dose: 1.56 mg/kg/injection, schedule: Q01DX009 (ip), vehicle: saline with Tween-80 103 % of control | dose: 2.5 mg/kg/injection, schedule: Q01DX009 (ip), vehicle: saline sonified 118 % of control | dose: 2.5 mg/kg/injection, schedule: Q01DX009 (ip), vehicle: saline 109 % of control | dose: 2.6 mg/kg/injection, schedule: Q01DX009 (ip), vehicle: saline with Tween-80 106 % of control | dose: 3.13 mg/kg/injection, schedule: Q01DX009 (ip), vehicle: saline sonified 100 % of control | dose: 3.13 mg/kg/injection, schedule: Q01DX009 (ip), vehicle: saline with Tween-80 108 % of control | dose: 3.13 mg/kg/injection, schedule: Q04DX003 (ip), vehicle: saline 100 % of control | [1] 113 % of control | dose: 6.0 mg/kg/injection, schedule: Q01DX009 (ip), vehicle: saline with Tween-80 113 % of control | dose: 6.25 mg/kg/injection, schedule: Q01DX009 (ip), vehicle: saline with Tween-80 122 % of control and 91 % of control | dose: 6.25 mg/kg/injection, schedule: Q04DX003 (ip), vehicle: saline 118 % of control | dose: 12.5 mg/kg/injection, schedule: Q04DX003 (ip), vehicle: saline 118 % of control

Cc1ccc(NC(=O)Oc2cc(C)c(C)cc2Cl)c([N+](=O)[O-])c1
inactive: dose: 50.0 mg/kg/injection, schedule: Q01DX009 (ip), vehicle: saline with Tween-80 107 % of control | dose: 100.0 mg/kg/injection, schedule: Q01DX009 (ip), vehicle: saline with Tween-80 104 % of control | dose: 200.0 mg/kg/injection, schedule: Q01DX009 (ip), vehicle: saline with Tween-80 112 % of control

OC1CCc2ncccc2O1 (stereo unspecified)
inactive: [2] 102 % of control | [3] 102 % of control | dose: 200.0 mg/kg/injection, schedule: Q01DX009 (ip), vehicle: saline 102 % of control

COc1ccccc1CNCCCCCCNCCSSCCNCCCCCCNCc1ccccc1OC
inactive: dose: 12.5 mg/kg/injection, schedule: Q04DX002 (ip), vehicle: suspension in saline 102 % of control | dose: 25.0 mg/kg/injection, schedule: Q04DX002 (ip), vehicle: suspension in saline 97 % of control

CN(N=O)C(=O)N[C@@H](C=O)[C@@H](O)[C@H](O)[C@H](O)CO
inactive: dose: 31.25 mg/kg/injection, schedule: Q01DX001 (ip), vehicle: other 105 % of control and 106 % of control | dose: 62.5 mg/kg/injection, schedule: Q01DX001 (ip), vehicle: other 105 % of control and 109 % of control | dose: 80.0 mg/kg/injection, schedule: Q04DX003 (ip), vehicle: citric acid 110 % of control | dose: 80.0 mg/kg/injection, schedule: Q04DX003 (ip), vehicle: other 108 % of control | dose: 120.0 mg/kg/injection, schedule: Q04DX003 (ip), vehicle: other 107 % of control and 114 % of control | dose: 125.0 mg/kg/injection, schedule: Q01DX001 (ip), vehicle: other 111 % of control and 117 % of control | dose: 180.0 mg/kg/injection, schedule: Q04DX003 (ip), vehicle: citric acid 119 % of control | dose: 180.0 mg/kg/injection, schedule: Q04DX003 (ip), vehicle: other 118 % of control and 122 % of control | dose: 240.0 mg/kg/injection, schedule: Q04DX003 (ip), vehicle: other 112 % of control and 120 % of control | dose: 500.0 mg/kg/injection, schedule: Q01DX001 (ip), vehicle: other 90 % of control

O=C(NN(C(=O)c1ccccc1)c1ccccc1)c1ccccc1
inactive: [4] 95 % of control | [5] 92 % of control

O=S(Cc1ccc2c(c1)OCO2)c1ccccc1 (stereo unspecified)
inactive: dose: 100.0 mg/kg/injection, schedule: Q01DX001 (ip), vehicle: Klucel (hydroxypropylcellulose) (HPC) 101 % of control | dose: 200.0 mg/kg/injection, schedule: Q01DX001 (ip), vehicle: Klucel (hydroxypropylcellulose) (HPC) 100 % of control | dose: 400.0 mg/kg/injection, schedule: Q01DX001 (ip), vehicle: Klucel (hydroxypropylcellulose) (HPC) 100 % of control

O=C1C(Br)=C(Nc2ccccc2)C(=O)C(Br)=C1Nc1ccccc1
inactive: [6] 98 % of control | [7] 93 % of control

Cn1c(-c2ccc(Br)cc2)cc2[nH]c(=S)nc(N)c2c1=O
inactive: [8] 105 % of control | [4] 100 % of control | [5] 102 % of control | [9] 96 % of control

NC(=O)C(O)C1OC(COCc2ccccc2)C(OCc2ccccc2)C1OCc1ccccc1 (stereo unspecified)
inactive: dose: 12.5 mg/kg/injection, schedule: Q01DX009 (ip), vehicle: distilled water + Tween-80 90 % of control and 104 % of control | dose: 25.0 mg/kg/injection, schedule: Q01DX009 (ip), vehicle: distilled water + Tween-80 92 % of control and 95 % of control | dose: 50.0 mg/kg/injection, schedule: Q01DX009 (ip), vehicle: distilled water + Tween-80 106 % of control and 100 % of control | dose: 100.0 mg/kg/injection, schedule: Q01DX009 (ip), vehicle: distilled water + Tween-80 100 % of control and 89 % of control | dose: 200.0 mg/kg/injection, schedule: Q01DX009 (ip), vehicle: distilled water + Tween-80 104 % of control and 97 % of control

COc1cccc2cc(-n3nnc4cc([N+](=O)[O-])ccc43)c(=O)oc12
inactive: dose: 12.5 mg/kg/injection, schedule: Q01DX005 (ip), vehicle: saline with Tween-80 95 % of control | [8] 93 % of control | [4] 92 % of control and 95 % of control | [5] 97 % of control | [9] 98 % of control

CN(C)Cc1ccc2ccccc2c1O
inactive: [2] 104 % of control | [3] 109 % of control

CC(=O)C(=O)c1ccc(O)cc1
inactive: dose: 10.0 mg/kg/injection, schedule: Q01DX009 (ip), vehicle: saline with Tween-80 96 % of control | dose: 20.0 mg/kg/injection, schedule: Q01DX009 (ip), vehicle: saline with Tween-80 94 % of control | dose: 40.0 mg/kg/injection, schedule: Q01DX009 (ip), vehicle: saline with Tween-80 99 % of control

CCSc1nc2ccc(CN3C(=O)c4ccccc4C3=O)cc2s1
inactive: dose: 50.0 mg/kg/injection, schedule: Q01DX009 (ip), vehicle: Klucel (hydroxypropylcellulose) (HPC) 92 % of control | dose: 100.0 mg/kg/injection, schedule: Q01DX009 (ip), vehicle: Klucel (hydroxypropylcellulose) (HPC) 89 % of control | dose: 200.0 mg/kg/injection, schedule: Q01DX009 (ip), vehicle: Klucel (hydroxypropylcellulose) (HPC) 86 % of control

CN1c2ccccc2Sc2c1n[nH]c2-c1ccccc1
inactive: dose: 60.0 mg/kg/injection, schedule: Q01DX005 (ip), vehicle: Klucel (hydroxypropylcellulose) (HPC) 104 % of control | dose: 120.0 mg/kg/injection, schedule: Q01DX005 (ip), vehicle: Klucel (hydroxypropylcellulose) (HPC) 111 % of control | dose: 240.0 mg/kg/injection, schedule: Q01DX005 (ip), vehicle: Klucel (hydroxypropylcellulose) (HPC) 119 % of control

O=C1CN2C(=O)C1(c1ccccc1)C(=O)NC2=S (stereo unspecified)
inactive: dose: 100.0 mg/kg/injection, schedule: Q04DX002 (ip), vehicle: Klucel (hydroxypropylcellulose) (HPC) 105 % of control | dose: 200.0 mg/kg/injection, schedule: Q04DX002 (ip), vehicle: Klucel (hydroxypropylcellulose) (HPC) 106 % of control | dose: 400.0 mg/kg/injection, schedule: Q04DX002 (ip), vehicle: Klucel (hydroxypropylcellulose) (HPC) 106 % of control

COC1(OC)/C(=C/Cl)CC2(C)C(=O)NC(=O)C21Cl (stereo unspecified)
inactive: dose: 25.0 mg/kg/injection, schedule: Q01DX005 (ip), vehicle: Klucel (hydroxypropylcellulose) (HPC) 106 % of control | [6] 105 % of control | [7] 105 % of control | dose: 200.0 mg/kg/injection, schedule: Q01DX005 (ip), vehicle: Klucel (hydroxypropylcellulose) (HPC) 106 % of control
